Measurements from patent publication US9745328B2, “Flap modulators” (JANSSEN PHARMACEUTICA NV, priority 2013, dated 2017).
Where two headings read alike, the source gives them in different places.

What was measured:
[1] = test system: leukotriene pathway in human whole blood (LTB4); assay: Human whole blood assay (LTB4 levels after calcium ionophore A23187 stimulation); type: cell-based; conditions: read-out: Human Whole Blood LTB4 IC50 1:1
Description: The ability of the compounds of the present invention to treat a FLAP-mediated disease and/or disorder, or associated symptoms or complications thereof, was determined using the following procedures. Binding assay data represent the average value obtained from two different assay plates, with samples run in duplicate on each plate. Human whole blood assay data represent a single replicate on an assay plate using whole blood from at least one healthy donor.
An in vitro cellular assay was performed using human whole blood collected in heparin-containing tubes, which was used to test the ability of compounds to modulate the leukotriene pathway in human whole blood. The blood was diluted 1:1 in RPMI medium, pre-incubated for 15 min at 37° Celsius with test compounds at various concentrations, and then stimulated with calcium ionophore, A23187 (7 μg/mL), for 30 min at 37° Celsius. The samples were then centrifuged and plasma was removed. The plasma was diluted in assay buffer and LTB4 levels were measured using a commercial kit (Enzo Life Sciences). The concentration of each compound that was required for half-maximal inhibition (modulation) of recombinant enzyme activity (IC50) was calculated by a 4-parameter equation using the program GraphPad Prism (GraphPad software).

[2] = target: human FLAP (Homo sapiens (Human), UniProt P20292); assay: FLAP binding assay (HTRF format)
human FLAP, sequence (P20292 whole entry): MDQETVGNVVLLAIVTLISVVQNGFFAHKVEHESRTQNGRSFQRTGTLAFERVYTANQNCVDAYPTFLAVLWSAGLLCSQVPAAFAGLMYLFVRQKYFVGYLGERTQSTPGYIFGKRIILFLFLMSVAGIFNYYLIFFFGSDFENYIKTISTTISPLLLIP
How it was run: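 Samples were run in duplicate on each of two assay plates, the results were averaged, and the signal was expressed as an HTRF ratio.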

[3] = Homo sapiens, human whole blood diluted 1:1, A23187 stimulation, Table 6 (additional runs)
[4] = human FLAP wild type, Table 6 (additional runs)
[5] = Table 6 (additional runs), human FLAP wild type
[6] = Homo sapiens, Table 6 (additional runs), human whole blood diluted 1:1, A23187 stimulation

| Structure (SMILES) | IC50 [1, 3] | Ki [2, 5] | IC50 [1, 6] | also measured |
| --- | --- | --- | --- | --- |
| CC(O)CN1CCC(S(=O)(=O)c2ncccc2-c2ccc(-c3cnc(N)cn3)c(F)c2)CC1 (racemic) [Example 905, 1-[4-({3-[4-(5-Aminopyrazin-2-yl)-3-fluorophenyl]pyridin-2-yl}sulfonyl)piperidin-1-yl]propan-2-ol] | 52.9 nM | – | – | Ki [2, 4]: 57.9 nM |
| C[C@@H](NS(=O)(=O)c1ccccc1-c1ccc(-c2cnc(N)cn2)c(F)c1)C(F)(F)F [Example 20, (S)-4′-(5-Aminopyrazin-2-yl)-3′-fluoro-N-[(S)-2,2,2-trifluoro-1-methylethyl]biphenyl-2-sulfonamide] | – | 0.9 nM | – | IC50 ([1]; Table 6 (additional runs), human whole blood diluted 1:1, A23187 stimulation): 8.5 nM |
| CCCS(=O)(=O)Nc1ccccc1-c1ccc(-c2cnc(N)cn2)c(F)c1 [Example 36, N-[4′-(5-Aminopyrazin-2-yl)-3′-fluorobiphenyl-2-yl]propane-1-sulfonamide] | – | 8.1 nM | 137 nM | – |
| Nc1cnc(-c2ccc(-c3ccccc3S(=O)(=O)N3CCCCC3)cc2F)cn1 [Example 43, 5-[3-fluoro-2′-(piperidin-1-ylsulfonyl)biphenyl-4-yl]pyrazin-2-amine] | – | 3 nM | 38.1 nM | – |
| Nc1cnc(-c2ccc(-c3ccccc3S(=O)(=O)N3CCNCC3)cc2F)cn1 [Example 46, 5-[3-Fluoro-2′-(piperazin-1-ylsulfonyl)biphenyl-4-yl]pyrazin-2-amine] | – | 61.5 nM | 177 nM | – |
| CN1CCN(S(=O)(=O)c2ccccc2-c2ccc(-c3cnc(N)cn3)c(F)c2)CC1 [Example 54, 5-{3-Fluoro-2′-[(4-methylpiperazin-1-yl)sulfonyl]biphenyl4-yl}pyrazin-2-amine] | – | 24.9 nM | 41.3 nM | – |
| N#CC1CCN(S(=O)(=O)c2ccccc2-c2ccc(-c3cnc(N)cn3)c(F)c2)CC1 [Example 64, 1-{[4′-(5-Aminopyrazin-2-yl)-3′-fluorobiphenyl-2-yl]sulfonyl}piperidine-4-carbonitrile] | – | 1.9 nM | 13.1 nM | – |
| Nc1cnc(-c2ccc(-c3ccccc3S(=O)(=O)N3CCC(O)CC3)cc2F)cn1 [Example 67, 1-{[4′-(5-Aminopyrazin-2-yl)-3′-fluorobiphenyl-2-yl]sulfonyl}piperidin-4-ol] | – | 4.2 nM | 16.8 nM | – |
| Nc1cnc(-c2ccc(-c3ccccc3S(=O)(=O)N3CCC(CO)CC3)cc2F)cn1 [Example 68, (1-{[4′-(5-Aminopyrazin-2-yl)-3′-fluorobiphenyl-2-yl]sulfonyl}piperidin-4-yl)methanol] | – | 1.1 nM | 10.9 nM | – |
| Nc1cnc(-c2ccc(-c3ccccc3S(=O)(=O)N3CCC[C@@H]3CO)cc2F)cn1 [Example 91, (R)-(1-((4′-(5-aminopyrazin-2-yl)-3′-fluoro-[1,1′-biphenyl]-2-yl)sulfonyl)pyrrolidin-2-yl)methanol] | – | 4.7 nM | 38.3 nM | – |
| Nc1cnc(-c2ccc(-c3ccccc3S(=O)(=O)NC[C@H](O)c3ccccc3)cc2F)cn1 [Example 117, (R)-4′-(5-aminopyrazin-2-yl)-3′-fluoro-N-(2-hydroxy-2-phenylethyl)-[1,1′-biphenyl]-2-sulfonamide] | – | 0.7 nM | 6.6 nM | – |
| CC(C)N(CCO)S(=O)(=O)c1ccccc1-c1ccc(-c2cnc(N)cn2)c(F)c1 [Example 141, 4′-(5-Aminopyrazin-2-yl)-3′-fluoro-N-(2-hydroxyethyl)-N-(1-methylethyl)biphenyl-2-sulfonamide] | – | 0.7 nM | 3.3 nM | – |
| Nc1cnc(-c2ccc(-c3ccccc3S(=O)(=O)N[C@H]3c4ccccc4C[C@@H]3O)cc2F)cn1 [Example 158] | – | 0.6 nM | 1.4 nM | – |
| Nc1cnc(-c2ccc(-c3ccccc3S(=O)(=O)N[C@@H]3c4ccccc4C[C@H]3O)cc2F)cn1 [Example 159, 4′-(5-aminopyrazin-2-yl)-3′-fluoro-N-((1R,2R)-2-hydroxy-2,3-dihydro-1H-inden-1-yl)-[1,1′-biphenyl]-2-sulfonamide] | – | 0.8 nM | 1.3 nM | – |
| Nc1cnc(-c2ccc(-c3ccccc3S(=O)(=O)N[C@H]3c4ccccc4C[C@H]3O)cc2F)cn1 [Example 160, 4′-(5-aminopyrazin-2-yl)-3′-fluoro-N-((1S,2R)-2-hydroxy-2,3-dihydro-1H-inden-1-yl)-[1,1′-biphenyl]-2-sulfonamide] | – | 0.4 nM | 5.3 nM | Ki ([2]; human FLAP wild type, a calculated value of 0.000 indicates Ki less than 1 nM): < 1 nM |
| Nc1cnc(-c2ccc(-c3ccccc3S(=O)(=O)C3CCCC3)cc2F)cn1 [Example 195, 5-[2′-(Cyclopentylsulfonyl)-3-fluorobiphenyl-4-yl]pyrazin-2-amine] | – | 2.3 nM | 69 nM | – |
| Nc1cnc(-c2ccc(-c3ccccc3S(=O)(=O)C3CCC3)cc2F)cn1 [Example 196, 5-[2′-(Cyclobutylsulfonyl)-3-fluorobiphenyl-4-yl]pyrazin-2-amine] | – | 7.8 nM | 96.3 nM | – |

| Structure (SMILES) | IC50 [1, 3] | Ki [2, 5] | IC50 [1, 6] | also measured |
| --- | --- | --- | --- | --- |
| CCCCCCS(=O)(=O)c1ccccc1-c1ccc(-c2cnc(N)cn2)c(F)c1 [Example 198, 5-[3-Fluoro-2′-(hexylsulfonyl)biphenyl-4-yl]pyrazin-2-amine] | – | 72.1 nM | 819 nM | – |
| CN1CCN(S(=O)(=O)c2cc(C(F)(F)F)ccc2-c2ccc(-c3cnc(N)cn3)c(F)c2)CC1 [Example 212, 5-{3-Fluoro-2′-[(4-methylpiperazin-1-yl)sulfonyl]-4′-(trifluoromethyl)biphenyl-4-yl}pyrazin-2-amine] | – | 0.8 nM | 5.3 nM | – |
| CC(C)(C)NS(=O)(=O)c1ccccc1-c1ccc(-c2cnc3[nH]ccc3c2)c(F)c1 [Example 367, N-tert-Butyl-3′-fluoro-4′-(1H-pyrrolo[2,3-b]pyridin-5-yl)biphenyl-2-sulfonamide] | – | 0.9 nM | 5.6 nM | – |
| CCN(CC)S(=O)(=O)c1ccccc1-c1ccc(-c2cnc3[nH]ccc3n2)c(F)c1 [Example 373, N-Diethyl-3′-fluoro-4′-(5H-pyrrolo[2,3-b]pyrazin-2-yl)biphenyl-2-sulfonamide] | – | 0.8 nM | 6.6 nM | – |
| CC(C)S(=O)(=O)c1ncccc1-c1ccc(-c2cnc(N)cn2)c(F)c1 [Example 395, 5-(2-Fluoro-4-{2-[(1-methylethyl)sulfonyl]pyridin-3-yl}phenyl)pyrazin-2-amine] | 26.9 nM | – | – | – |
| CC(C)(C)NS(=O)(=O)c1ccccc1-c1ccc(-c2cnc(N)c(N)n2)c(F)c1 [Example 428, N-tert-Butyl-4′-(5,6-diaminopyrazin-2-yl)-3′-fluorobiphenyl-2-sulfonamide] | 4.4 nM | – | – | Ki [2, 4]: 4.3 nM |
| CC(C)(C)NS(=O)(=O)c1ccccc1-c1ccc(-c2cnc(N)c(Cl)n2)c(F)c1 [Example 441, 4′-(5-Amino-6-chloropyrazin-2-yl)-N-tert-butyl-3′-fluorobiphenyl-2-sulfonamide] | 6.5 nM | – | – | Ki [2, 4]: 0.8 nM |
| Nc1cnc(-c2ccc(-c3ccccc3OC(F)(F)F)cc2F)cn1 [Example 475, 5-[3-Fluoro-2′-(trifluoromethoxy)biphenyl-4-yl]pyrazin-2-amine] | 4180 nM | – | – | Ki [2, 4]: 89.6 nM |
| Nc1cnc(-c2ccc(-c3ccccc3O)cc2F)cn1 [Example 476, 4′-(5-aminopyrazin-2-yl)-5′-fluorobiphenyl-2-ol] | 350 nM | – | – | Ki [2, 4]: 24.1 nM |
| Nc1cnc(-c2ccc(-c3ccccc3S(=O)(=O)c3ccccc3)cc2F)cn1 [Example 477, 5-[3-Fluoro-2′-(phenylsulfonyl)biphenyl-4-yl]pyrazin-2-amine] | 268 nM | – | – | Ki [2, 4]: 14.7 nM |
| CC(C)c1ccccc1-c1ccc(-c2cnc(N)cn2)c(F)c1 [Example 482, 5-[3-Fluoro-2′-(1-methylethyl)biphenyl-4-yl]pyrazin-2-amine] | 320 nM | – | – | Ki [2, 4]: 60.9 nM |
| Nc1cnc(-c2ccc(-c3ccccc3C(=O)N3CCS(=O)(=O)CC3)cc2F)cn1 [Example 509, 5-{2′-[(1,1-Dioxidathiomorpholin-4-yl)carbonyl]-3-fluorobiphenyl-4-yl}pyrazin-2-amine] | 160 nM | – | – | – |
| Nc1ccnc(Oc2ccccc2-c2ccc(-c3cnc(N)nc3)c(F)c2)n1 [Example 529] | 79.6 nM | – | – | – |
| Nc1cnc(-c2ccc(-c3ccccc3S(=O)(=O)NCC3(O)CNC3)cc2F)cn1 [Example 664] | > 1000 nM | – | – | IC50 ([1]; Homo sapiens, human whole blood diluted 1:1 in RPMI, A23187 stimulation, LTB4): > 1000 nM |
| C[C@H](NC(=O)c1cc(C(F)(F)F)ccc1-c1ccc(-c2cnc(N)nc2)c(F)c1)C(F)(F)F [Example 788, 2-[4-(2-Aminopyrimidin-5-yl)-3-fluoro-phenyl]-5-(trifuoromethyl)-N-[(1S)-2,2,2-trifluoro-1-methyl-ethyl]enzamide] | 1800 nM | – | – | – |
| CC(C)(C)C(=O)Nc1ncccc1-c1ccc(-c2cnc3[nH]ccc3c2)c(F)c1 [Example 802, N-{3-[3-Fluoro-4-(1H-pyrrolo[2,3-b]pyridin-5-yl)phenyl]pyridin-2-yl}-2,2-dimethylpropanamide] | > 1000 nM | – | – | – |
| Nc1cnc(-c2ccc(-c3ccccc3-c3ccc(N)nn3)cc2F)cn1 [Example 863] | 140 nM | – | – | – |
